Assay results taken from US9862730B2, “Imidazothiadiazole derivatives as protease activated receptor 4 (PAR4) inhibitors for treating platelet aggregation” (BRISTOL-MYERS SQUIBB COMPANY, priority 2012, dated 2018).
Like-named read-outs stand apart in the source and are kept apart here.

Columns and labels:
PAR4 [1] = biological target: T1, PAR4 (Homo sapiens (Human), UniProt Q96RI0); experiment: FLIPR assay in PAR4-expressing HEK293 cells (PAR4 antagonist activity, calcium mobilization); type: cell-based; conditions: FLIPR assay as described in Example A
T1 sequence (Q96RI0 18-385): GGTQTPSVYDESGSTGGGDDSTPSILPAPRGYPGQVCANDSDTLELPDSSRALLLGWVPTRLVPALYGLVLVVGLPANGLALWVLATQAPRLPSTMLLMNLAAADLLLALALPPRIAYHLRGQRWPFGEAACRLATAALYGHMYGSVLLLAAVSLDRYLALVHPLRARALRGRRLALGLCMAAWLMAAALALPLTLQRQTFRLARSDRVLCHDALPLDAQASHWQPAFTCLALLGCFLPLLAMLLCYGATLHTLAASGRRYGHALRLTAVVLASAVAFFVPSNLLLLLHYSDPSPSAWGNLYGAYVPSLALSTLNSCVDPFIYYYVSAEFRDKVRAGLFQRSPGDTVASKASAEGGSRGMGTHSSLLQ
Method in brief: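 HEK293 cells stably expressing human PAR4 (also endogenous PAR1) in HBSS/10 mM HEPES, 0.67% DMSO final. Compound added and read for agonist activity, then 30 min room temperature before PAR4 agonist peptide; intracellular calcium mobilization monitored by FDSS/FLIPR.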

[2] = system: platelet aggregation in human PRP; experiment: Tissue factor-induced platelet aggregation assay; type: cell-based; conditions: tissue factor and CaCl2
Source text: Example E is a tissue factor-induced platelet aggregation assay. The conditions in this assay mimic the physiological events during thrombus formation. In this assay, platelet aggregation in human PRP was initiated by the addition of tissue factor and CaCl2. Tissue factor, the initiator of the extrinsic coagulation cascade, is highly elevated in human atherosclerotic plaque. Exposure of blood to tissue factor at the atherosclerotic site triggers a robust generation of thrombin and induces the formation of obstructive thrombi.
(§1) The platelet rich plasma was isolated by centrifugation at 170 g for 14 minutes.
The ability of PAR1 or PAR4 antagonist to inhibit platelet aggregation induced by endogenous thrombin was tested in a tissue factor driven aggregation assay. The compounds were pre-incubated with PRP for 2 min (FIGS. 3 and 4). Aggregation is initiated by addition of CaCl2 and recombinant human tissue factor, which results in the generation of thrombin through activation of the coagulation pathway in the plasma. Anticoagulant agents such as corn trypsin inhibitor (Haematologic Technologies, Essex Junction, Vt.) at 50 μg/ml and PEFABLOC® FG (Centerchem, Norwalk, Conn.) are also added to the sample to prevent fibrin clot formation during the time of the study. Platelet aggregation is monitored using standard instrumentation including optical aggregometer or impedance aggregometer.

human washed platelets = experiment: Alpha-thrombin induced platelet aggregation assay; type: cell-based; conditions: for IC50: Homo sapiens, Platelet, 0.1 h, AUC at 6 min, read-out: IC50 for the inhibition of platelet aggregation
Experimental: Example D is an alpha-thrombin-induced platelet aggregation assay. Alpha-thrombin activates both PAR1 and PAR4.
Human blood was collected in ACD (85 mM tri-sodium citrate, 78 mM citric acid, 110 mM D-glucose, pH 4.4) at a ratio of 1.4 ml per 10 ml blood. PRP was isolated by centrifugation at 170 g for 14 minutes and platelets were further pelleted by centrifugation at 1300 g for 6 minutes. Platelets were washed once with 10 ml ACD containing 1 mg/ml bovine serum albumin. Platelets were resuspended at ˜2.5×10^8/ml in Tyrode's Buffer (137 mM NaCl, 2 mM KCl, 1.0 mM MgCl2, 1 mM CaCl2, 5 mM glucose, 20 mM HEPES pH 7.4).
The ability of PAR4 antagonist to inhibit platelet aggregation induced by alpha-thrombin was tested using human washed platelets. […] Aggregation was initiated by addition of 2.5 or 5 nM alpha-thrombin (Haematologic Technologies, Essex Junction, Vt.) to 240 μl of washed platelets at stirring speed of 1200 rpm. […] IC50 was calculated using vehicle control as 0% inhibition.

[3] = system: electrolytic injury-induced carotid artery thrombosis; experiment: Cynomolgus monkey electrolytic injury-induced carotid artery thrombosis model; type: in vivo; conditions: oral, dose response
Source text: The efficacy of the PAR4 antagonists of the present invention in preventing thrombosis can also be measured in a variety of in vivo assays. Exemplary mammals that can provide models of thrombosis and hemostasis to test the effectiveness of the PAR4 antagonists of the present invention as antithrombotic agents include, but are not limited to, guinea pigs and primates. Relevant efficacy models include, but are not limited to, electrolytic injury-induced carotid artery thrombosis, FeCl3-induced carotid artery thrombosis and arteriovenous-shunt thrombosis. […]
On the day of the study, compounds or vehicles were administered orally at 1 to 2 hours before the experiment. […] Blood pressure and heart rate were monitored to maintain normal vital signs.
Carotid blood flow was measured with an appropriately sized TRANSONIC® flow probe and a TRANSONIC® perivascular flowmeter (TS420 Model, Transonic Systems Inc., Ithaca, N.Y.). It was continuously recorded over a 90-min period to monitor thrombosis-induced occlusion. Integrated carotid blood flow was measured by the area under the flow-time curve. It was expressed as percent of total control carotid blood flow, which would result if control blood flow had been maintained continuously for 90 min. […]

PAR4 [4] = biological target: T1, PAR4; experiment: Gamma thrombin induced platelet aggregation assay in PRP (PRP assay); type: cell-based
Source text: The compounds of the current invention can be tested in vitro for their ability to inhibit platelet aggregation induced by gamma-thrombin as shown in Example C. Gamma-thrombin, a proteolytic product of alpha-thrombin which no longer interacts with PAR1, selectively cleaves and activates PAR4 (Soslau, G. et al., “Unique pathway of thrombin-induced platelet aggregation mediated by glycoprotein Ib”, J. Biol. Chem., 276:21173-21183 (2001)). Platelet aggregation can be monitored in a 96-well microplate aggregation assay format or using standard platelet aggregometer. The aggregation assay can also be employed to test the selectivity of the compound for inhibiting platelet aggregation induced by PAR4 agonist peptides, PAR1 agonist peptide, ADP, or thromboxane analogue U46619.
as §1
The ability of the compounds of the current invention to inhibit platelet aggregation induced by gamma-thrombin was tested in a 96-well microplate aggregation assay format. Briefly, PRP or washed platelet suspension (100 μl) was pre-incubated for 5 minutes at room temperature with varying concentrations of compounds. Aggregation was initiated by ˜10-50 nM gamma thrombin (Haematologic Technologies, Essex Junction, Vt.), which was titrated daily to achieve 80% platelet aggregation. Refludan at 1 U/mL (Berlex, Montville, N.J.) was added to the gamma thrombin sample to prevent PAR1 activation induced by residual alpha-thrombin contamination. The plate was then placed into a 37° C. Molecular Devices (Sunnyvale, Calif.) SPECTRAMAX® Plus Plate Reader. […] Data was collected with SOFTMAX® 4.71 software. The plate also included an untreated control sample which served as ODmax, while buffer containing no platelets was the ODmin. Platelet aggregation was determined by subtracting the ODmax from the ODmin for the 100% aggregation value. In experimental samples, the observed transmission was subtracted from the minimum value and then compared to the 100% aggregation value to determine the percentage aggregation. IC50 values are determined using Excel Fit software.
As indicated above, the PRP assay, an in vitro assay, measures the PAR4 antagonist activity of compounds tested as described in Example C.

[5] = ACS patients, phase III; cited from earlier work

Structure (SMILES) | IC50 (PAR4 [1]) | IC50 (PAR4 [4]) | other results
COc1cc(OC)c2cc(-c3cn4nc(OC)sc4n3)oc2c1 [Example 73] | 0.99 nM | – | inhibition of tissue factor-induced platelet aggregation (FIGS. 3 and 4) [2]: effective inhibition
COc1cc(OCc2ccccc2)c2cc(-c3cn4nc(OC)sc4n3)oc2c1 [Example 203, 6-(4-(Benzyloxy)-6-methoxybenzofuran-2-yl)-2-methoxyimidazo[2,1-b][1,3,4]thiadiazole] | – | – | inhibition of alpha-thrombin-induced platelet aggregation (FIG. 2) (human washed platelets; 5 nM alpha-thrombin): dose-dependent inhibition; IC50 (human washed platelets; 5 nM alpha-thrombin, n=3): 6900 ± 300 nM; IC50 (human washed platelets; […] alpha-thrombin, n=4): 1100 ± 900 nM
COc1cc(OCc2cccc(OCc3ccccc3)c2)c2cc(-c3cn4nc(OC)sc4n3)oc2c1 [Example 205, 6-(4-((3-(Benzyloxy)benzyl)oxy)-6-methoxybenzofuran-2-yl)-2-methoxyimidazo[2,1-b][1,3,4]thiadiazole] | – | – | antithrombotic efficacy / inhibition of thrombus formation (FIG. 5) [3]: demonstrating the in vivo antithrombotic efficacy
COc1ccc(COc2cccc(COc3cc(OC)cc4oc(-c5cn6nc(OC)sc6n5)cc34)c2)cc1 [Example 392] | 1.44 nM | 105 nM | –
COc1cc(OCc2cc(Cl)cc(OCc3ccccc3)c2)c2cc(-c3cn4nc(OC)sc4n3)oc2c1 [Example 402] | 6.2 nM | 151 nM | –
COc1cc(OCc2cccc(OCc3ccccc3)c2)c2cc(-c3cn4nc(Cl)sc4n3)oc2c1 [Example 405] | 4.69 nM | 544 nM | –
CCOc1cc(OCc2cccc(OCc3ccccc3)c2)c2cc(-c3cn4nc(OC)sc4n3)oc2c1 [Example 426] | 4.56 nM | 566 nM | –
COc1nn2cc(-c3cc4c(F)cc(OCc5cccc(OCc6ccccc6)c5)cc4o3)nc2s1 [Example 428] | 4.81 nM | 73.2 nM | –
CCOC(=O)N[C@@H]1CC[C@@H]2[C@@H](C1)C[C@H]1C(=O)O[C@H](C)[C@H]1[C@H]2/C=C/c1ccc(-c2cccc(F)c2)cn1 [vorapaxar] | – | – | cardiovascular events [5]: did not significantly reduce cardiovascular events; risk of major bleeding [5]: significantly increased the risk of major bleeding

Continued by falling IC50 (PAR4 [1]), values first:

IC50 (PAR4 [1]) | IC50 (PAR4 [4]) | Structure (SMILES) | other results
513 nM | 3270 nM | COc1nn2cc(-c3cc4c(OCc5cccc(OCc6ccccc6)c5)cc(OC)c(Cl)c4o3)nc2s1 [Example 415, 6-(4-((3-(Benzyloxy)benzyl)oxy)-7-chloro-6-methoxybenzofuran-2-yl)-2-methoxyimidazo[2,1-b][1,3,4]thiadiazole] | –
35.9 nM | 2500 nM | COc1cc(OCc2cccc(OCc3ccc(C(C)(C)C)cc3)c2)c2cc(-c3cn4nc(OC)sc4n3)oc2c1 [Example 393] | –
3.68 nM | 616 nM | COc1cc(OCc2cccc(OCc3ccc(OC(F)(F)F)cc3)c2)c2cc(-c3cn4nc(OC)sc4n3)oc2c1 [Example 394] | –
2.44 nM | 22.5 nM | COc1cc(COc2cc(OC)cc3oc(-c4cn5nc(OC)sc5n4)cc23)cc(OCc2ccccc2)c1 [Example 404] | –
2.14 nM | 66.2 nM | COc1cc(OCc2cccc(OCc3cccnc3)c2)c2cc(-c3cn4nc(OC)sc4n3)oc2c1 [Example 398] | –
1.12 nM | 462 nM | COc1cc(OCc2cccc(OCc3ccccc3)c2)c2cc(-c3cn4nc([C@H](C)F)sc4n3)oc2c1 [Example 407] | –
0.59 nM | 4.95 nM | COc1cc(OCc2cccc(OCc3csc(C)n3)c2)c2cc(-c3cn4nc(OC)sc4n3)oc2c1 [Example 399] | –
